Here are results for 28 compounds from patent US9051310B2, “Nicotinamide derivative or salt thereof” (FUJIFILM Corporation, priority 2011, dated 2015).

Test [1] deals with T1, glutathione S-transferase (GST)-linked full-length human Syk protein (Homo sapiens, UniProt P43405).
T1 construct: glutathione S-transferase (GST)-linked full-length human Syk protein; purchased Carna Biosciences; host or cells: Baculovirus expression system
Briefly: Syk enzyme assay. Type of test: biochemical. Conditions: 0.83 nM Syk, time-resolved fluorescence; read-out: IC50 of Syk-inhibitory activity. A digest of the protocol:
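Phosphotyrosine on a biotin-peptide substrate (0.5 μM) was read by time-resolved fluorescence at 615 and 665 nm with Eu-anti-pTyr antibody and APC-streptavidin after 1 h EDTA stop.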

Test [2] relates to THP-1 cells (TNFα secretion on human IgG-coated plate). Put plainly: TNFα generation assay. Type of test: cell-based. Conditions: IFN-γ differentiated THP-1 cells, 7 hours, AlphaLISA, read-out: IC50 of TNFα generation inhibitory activity. A digest of the protocol:
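Secreted TNFα was measured by AlphaLISA after 7 h of culture on human IgG-coated wells (coating at 10 μg/ml), with 5×10^4 cells/well. Before plating, the cells had been treated with compound for 30 min at room temperature. The cells were macrophage-like THP-1, produced by a 2-day exposure to 10 ng/ml IFN-γ.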
In general terms: Alpha assays give light when donor and acceptor beads are brought close together.

For the compound `C[C@H](N)[C@H](Nc1nc(Nc2ccc(F)cc2)c(C(N)=O)cc1F)C1CC1` [Example 2-58, 6-(((1R,2S)-2-amino-1-cyclopropylpropyl)amino)-5-fluoro-2-((4-fluorophenyl)amino)nicotinamide], the results for the IC50 in test [1] and in test [2] were 10 to 50 nM and 130 to 200 nM, respectively.
Take `Cc1nn(C)c2ccc(Nc3nc(N[C@@H]4CCOC[C@@H]4N)c(F)cc3C(N)=O)cc12` [Example 2-208, 6-(((3R,4R)-3-aminotetrahydro-2H-pyran-4-yl)amino)-2-((1,3-dimethyl-1H-indazol-5-yl)amino)-5-fluoronicotinamide]: the results for the IC50 in test [1] and in test [2] were less than 10 nM and less than 65 nM, respectively.
For the compound `Cc1cnn(-c2cncc(Nc3nc(N[C@@H]4CCCC[C@@H]4N)c(F)cc3C(N)=O)c2)c1` [Example 2-472, 6-(((1R,2S)-2-aminocyclohexyl)amino)-5-fluoro-2-((5-(4-methyl-1H-pyrazol-1-yl)pyridin-3-yl)amino)nicotinamide], the IC50 was less than 10 nM in test [1] and less than 65 nM in test [2].
Take `CCn1ncc2ccc(Nc3nc(N[C@H](CC(C)C)[C@H](C)N)c(F)cc3C(N)=O)cc21` [Example 2-11, 6-(((2S,3R)-2-amino-5-methylhexan-3-yl)amino)-2-((1-ethyl-1H-indazol-6-yl)amino)-5-fluoronicotinamide]: the figures for the IC50 in test [1] and in test [2] were less than 10 nM and 130 to 200 nM, respectively.
As for `CC[C@@H](Nc1nc(Nc2cnc(C)c(F)c2)c(C(N)=O)cc1F)[C@H](C)N` [Example 2-222, 6-(((2S,3R)-2-aminopentan-3-yl)amino)-5-fluoro-2-((5-fluoro-6-methylpyridin-3-yl)amino)nicotinamide], the IC50 was in the range of 10 to 50 nM in test [1] and 130 to 200 nM in test [2].
Take `COc1nn(C)c2c(F)cc(Nc3nc(N[C@@H]4CCOC[C@@H]4N)c(F)cc3C(N)=O)cc12` [Example 2-211, 6-(((3R,4R)-3-aminotetrahydro-2H-pyran-4-yl)amino)-5-fluoro-2-((7-fluoro-3-methoxy-1-methyl-1H-indazol-5-yl)amino)nicotinamide]: the IC50 was less than 10 nM in test [1] and 65 to 130 nM in test [2].
With `CC(C)[C@@H](Nc1nc(Nc2ccc3ncccc3c2)c(C(N)=O)cc1F)[C@H](C)N` [Example 2-106, 6-(((2S,3R)-2-amino-4-methylpentan-3-yl)amino)-5-fluoro-2-(quinolin-6-ylamino)nicotinamide], the IC50 lay in the range of 10 to 50 nM in test [1] and 130 to 200 nM in test [2].
For the compound `CC[C@H](N)[C@@H](CC)Nc1nc(Nc2cccc3c2cnn3CC)c(C(N)=O)cc1F` [Example 2-101, 6-(((3R,4S)-4-aminohexan-3-yl)amino)-2-((1-ethyl-1H-indazol-4-yl)amino)-5-fluoronicotinamide], the IC50 in test [1] was less than 10 nM; in test [2], 130 to 200 nM.
Consider `CCOC[C@@H](Nc1nc(Nc2ccc3c(cnn3C)c2)c(C(N)=O)cc1F)[C@H](C)N` [Example 2-179, 6-(((2S,3S)-3-amino-1-ethoxybutan-2-yl)amino)-5-fluoro-2-((1-methyl-1H-indazol-5-yl)amino)nicotinamide], for which the IC50 was in the range of 10 to 50 nM in test [1] and 130 to 200 nM in test [2].
Regarding `Cc1ccc(Nc2nc(N[C@@H]3CCOC[C@@H]3N)c(F)cc2C(N)=O)cn1` [Example 2-219, 6-(((3R,4R)-3-aminotetrahydro-2H-pyran-4-yl)amino)-5-fluoro-2-((6-methylpyridin-3-yl)amino)nicotinamide], the results for the IC50 in test [1] and in test [2] were 10 to 50 nM and 130 to 200 nM, respectively.
Turning to `CNc1ncc(Nc2nc(N[C@H](C3CC3)[C@H](C)N)c(F)cc2C(N)=O)cc1F` [Example 2-274, 6-(((1R,2S)-2-amino-1-cyclopropylpropyl)amino)-5-fluoro-2-((5-fluoro-6-(methylamino)pyridin-3-yl)amino)nicotinamide], the IC50 in test [1] was 10 to 50 nM; in test [2] it was 130 to 200 nM.
For `CCn1ncc2cc(Nc3nc(N[C@H](c4cccs4)[C@H](C)N)c(F)cc3C(N)=O)ccc21` [Example 2-416], in that order: less than 10 nM and less than 65 nM.
As to `CC[C@@H](Nc1nc(Nc2cccc(C(C)=O)c2)c(C(N)=O)cc1F)[C@H](C)N` [Example 2-478, 2-((3-acetylphenyl)amino)-6-(((2S,3R)-2-aminopentan-3-yl)amino)-5-fluoronicotinamide], the IC50 in test [1] is less than 10 nM; in test [2], 65 to 130 nM.
In the same order, the values of `COc1cc(Nc2nc(N[C@H](C3CC3)[C@H](C)N)c(F)cc2C(N)=O)cc(OC)c1` [Example 2-47, 6-(((1R,2S)-2-amino-1-cyclopropylpropyl)amino)-2-((3,5-dimethoxyphenyl)amino)-5-fluoronicotinamide] are less than 10 nM and 65 to 130 nM.
For `Cc1nn(C)c2ncc(Nc3nc(N[C@H](C4CC4)[C@H](C)N)c(F)cc3C(N)=O)cc12` [Example 2-243, 6-(((1R,2S)-2-amino-1-cyclopropylpropyl)amino)-2-((1,3-dimethyl-1H-pyrazolo[3,4-b]pyridin-5-yl)amino)-5-fluoronicotinamide], in that order: 10 to 50 nM and 130 to 200 nM.
For the compound `CCn1ncc2c(Nc3nc(N[C@H](COC)[C@H](C)N)c(F)cc3C(N)=O)cccc21` [Example 2-122, 6-(((2S,3S)-3-amino-1-methoxybutan-2-yl)amino)-2-((1-ethyl-1H-indazol-4-yl)amino)-5-fluoronicotinamide], the results for the IC50 in test [1] and in test [2] were 10 to 50 nM and 130 to 200 nM, respectively.
Turning to `CCOC[C@@H](Nc1nc(Nc2cccc3c2cnn3CC)c(C(N)=O)cc1F)[C@H](C)N` [Example 2-180, 6-(((2S,3S)-3-amino-1-ethoxybutan-2-yl)amino)-2-((1-ethyl-1H-indazol-4-yl)amino)-5-fluoronicotinamide], the IC50 in test [1] was in the range of 10 to 50 nM; in test [2], 130 to 200 nM.
For `C[C@H](N)[C@H](Nc1nc(Nc2cccc(-n3ccnn3)c2)c(C(N)=O)cc1F)C1CC1` [Example 2-480, 2-((3-(1H-1,2,3-triazol-1-yl)phenyl)amino)-6-(((1R,2S)-2-amino-1-cyclopropylpropyl)amino)-5-fluoronicotinamide], in that order: less than 10 nM and 65 to 130 nM.
Regarding `CCC[C@@H](Nc1nc(Nc2ccc3c(c2)c(C)nn3CCOC)c(C(N)=O)cc1F)[C@H](C)N` [Example 2-132, 6-(((2S,3R)-2-aminohexan-3-yl)amino)-5-fluoro-2-((1-(2-methoxyethyl)-3-methyl-1H-indazol-5-yl)amino)nicotinamide], the IC50 is less than 10 nM in test [1] and 130 to 200 nM in test [2].
On to `COCCn1nc(C)c2cc(Nc3nc(N[C@@H](CN)CC(C)C)c(F)cc3C(N)=O)ccc21` [Example 2-130], for which the results for the IC50 in test [1] and in test [2] were less than 10 nM and 65 to 130 nM, respectively.
Regarding `COc1cc(Nc2nc(N[C@H](C3CC3)[C@H](C)N)c(F)cc2C(N)=O)ccc1C` [Example 2-49, 6-(((1R,2S)-2-amino-1-cyclopropylpropyl)amino)-5-fluoro-2-((3-methoxy-4-methylphenyl)amino)nicotinamide], the results for the IC50 in test [1] and in test [2] were less than 10 nM and 130 to 200 nM, respectively.
`COc1ncc(Nc2nc(N[C@H](CC(C)C)[C@H](C)N)c(F)cc2C(N)=O)cc1-n1ccnn1` [Example 2-141, 6-(((2S,3R)-2-amino-5-methylhexan-3-yl)amino)-5-fluoro-2-((6-methoxy-5-(1H-1,2,3-triazol-1-yl)pyridin-3-yl)amino)nicotinamide]: the results for the IC50 in test [1] and in test [2] were 10 to 50 nM and 130 to 200 nM, respectively.
`CC[C@H](N)[C@H](Nc1nc(Nc2cccc3c2cnn3C)c(C(N)=O)cc1F)C1CC1` [Example 2-546, 6-(((1R,2S)-2-amino-1-cyclopropylbutyl)amino)-5-fluoro-2-((1-methyl-1H-indazol-4-yl)amino)nicotinamide]: the IC50 in test [1] was less than 10 nM; in test [2], 130 to 200 nM.
Regarding `COc1nn(C)c2c(F)cc(Nc3nc(N[C@@H]4CCCC[C@@H]4N)c(F)cc3C(N)=O)cc12` [Example 2-150, 6-(((1R,2S)-2-aminocyclohexyl)amino)-5-fluoro-2-((7-fluoro-3-methoxy-1-methyl-1H-indazol-5-yl)amino)nicotinamide], the IC50 in test [1] is less than 10 nM; in test [2] it was 130 to 200 nM.
`CC[C@H](N)[C@H](Nc1nc(Nc2ccc3c(cnn3CC)c2)c(C(N)=O)cc1F)C1CC1` [Example 2-362]: the IC50 is less than 10 nM in test [1] and 65 to 130 nM in test [2].
On to `COc1nn(C)c2ccc(Nc3nc(N[C@H](C4CCC4)[C@H](C)N)c(F)cc3C(N)=O)cc12` [Example 2-82, 6-(((1R,2S)-2-amino-1-cyclobutylpropyl)amino)-5-fluoro-2-((3-methoxy-1-methyl-1H-indazol-5-yl)amino)nicotinamide], for which the IC50 was less than 10 nM in test [1] and 130 to 200 nM in test [2].
With `C[C@H](N)[C@H](Nc1nc(Nc2ccc3ncccc3c2)c(C(N)=O)cc1F)C1CCC1` [Example 2-8, 6-(((1R,2S)-2-amino-1-cyclobutylpropyl)amino)-5-fluoro-2-(quinolin-6-ylamino)nicotinamide], the IC50 in test [1] was less than 10 nM; in test [2], less than 65 nM.
Consider `COCCn1nc(OC)c2cc(Nc3nc(N[C@@H]4CCOC[C@@H]4N)c(F)cc3C(N)=O)ccc21` [Example 2-329, 6-(((3R,4R)-3-aminotetrahydro-2H-pyran-4-yl)amino)-5-fluoro-2-((3-methoxy-1-(2-methoxyethyl)-1H-indazol-5-yl)amino)nicotinamide], for which the IC50 is less than 10 nM in test [1] and 65 to 130 nM in test [2].
